Assay results published in article PMC10846744, “Cathelicidin peptide analogues inhibit EV71 infection through blocking viral entry and uncoating” (PLOS Pathogens, 2024).
Where no end group is shown, it is not given here.

How the values were obtained:
EV71 virus [1] = test: Virus internalization assay (q-RT-PCR, immunoblotting); type: cell-based, enterovirus 71 (EV71); settings: 1.5 μM peptide (q-RT-PCR, MOI = 1) or 3 μM (immunoblotting, MOI = 10); RD cells 4°C 1 hr then 37°C 1 hr
Experimental: (§1) Fig 3 LL-18 and FF-18 inhibit viral attachment and internalization. (A) EV71 virus (MOI = 1) was pre-incubated with 1.5 μM LL-18, FF-18 or 12 μM 12s before they were used to incubate with RD cells at 4°C for 1 hr. Viral RNA was then determined with q-RT-PCR. Values are normalized to vehicle treated cells. ***, P<0.001. (B) EV71 virus (MOI = 1) was pre-incubated with 1.5 μM LL-18, FF-18 or 12 μM 12s before they were used to incubate with RD cells at 4°C for 1 hr followed by 37°C incubation for 1 hr. Viral RNA was then determined with q-RT-PCR. Values are normalized to vehicle treated cells. ***, P<0.001. (C) Diagram of EV71 subgenomic replicon. […] (D) RD cells transfected with EV71 SGR RNA were treated with 1.5 μM LL-18 or FF-18 for 3 hrs (left panel) or 6 hrs (right panel) before luciferase activity was measured. ns, not significant.
(§2) Viral binding and internalization assays were performed as previously described. […] Cells were then washed extensively with ice-cold PBS, and the viruses retained were analyzed with real-time PCR. […]
(§3) Supplementary file ppat.1011967.s002.tif: S2 Fig LL-18 and FF-18 inhibit viral attachment and internalization. […] Cells were then washed extensively and kept cultured for 24 hrs before viral VP1 expression was determined with immunoblotting. […] Cells were then washed extensively and kept cultured for 24 hrs before viral VP1 expression was determined with immunoblotting. […]

RD cells = test: Cytotoxicity of peptides on RD cells (Cell Titer-Glo); type: cell-based, human; settings: cell viability plotted against peptide concentration, Cell Titer-Glo (S1A-S1D Fig)
Experimental: To test whether Cathelicidin peptide (LL-37) and its analogues could inhibit enterovirus infection, we conducted viral infection inhibition test on RD cells, which are one of the most commonly used cells for enterovirus propagation. We first assessed the cytotoxicity of LL-37, LL-18, FF-18, and a short form of LL-37 (DL-37) (Fig 1A), and all the peptides tested have a CC50 over 50 μM (S1A–S1D Fig). We then chose lower concentrations to test their antiviral activity. […] In addition, EV71 infection could cause cytopathic effect (CPE) on RD cells, and peptide could rescue EV71-induced cell death as assayed by crystal violet staining (Fig 1E) or cellular ATP content measurement (Fig 1F).
Cell viability assays were carried out using the Cell Titer-Glo Luminescent Cell Viability Assay Kit (Promega, Madison, WI) following the manufacturer’s instructions. Luminescence signals were measured using a BioTek Neo2 microplate reader.
(A-D) Cell viability of RD cells treated with the indicated amount of DL-37 (A), LL-37 (B), LL-18 (C), or FF-18 (D) was plotted against peptide concentration, and the cytotoxicity was determined. (E) EV71 virus pre-incubated with indicated amounts of DL-37, and the cell viability was determined 24 h.p.i. ***, P<0.001. (F-G) CVB5 (F) or Echo7 (G) virus pre-incubated with 0.3, 0.9, or 1.5 μM of peptides were used to infect RD cells. Cell viability was determined 24 h.p.i. ***, P<0.001. (H-I) CVB5 (H) or Echo7 (I) virus pre-incubated with 3, 6, or 12 μM of peptides were used to infect RD cells. Cell viability was determined 24 h.p.i. ***, P<0.001. (TIF) Click here for additional data file.

EV71 virus [2] = test: Virus attachment assay (q-RT-PCR, immunoblotting); type: cell-based, enterovirus 71 (EV71); settings: 1.5 μM peptide (q-RT-PCR, MOI = 1) or 3 μM (immunoblotting, MOI = 10); RD cells 4°C 1 hr
Experimental: as §1, §2, §3

EV71 virus [3] = test: Pre-incubation of RD cells with peptide, wash-out, then EV71 infection; type: cell-based, enterovirus 71 (EV71); settings: RD cells incubated with peptide 2 hrs, EV71 MOI = 1, cell viability 24 h.p.i (S3A Fig)
Experimental: Supplementary file ppat.1011967.s003.tif: S3 Fig LL-18 binds directly to virus particles. (A) RD cells were pre-incubated with indicated amounts of LL-18, FF-18, DL-37, or LL-37 for 2 hrs before they were washed extensively to remove unbound peptides. Cells were then infected with the EV71 virus (MOI = 1) and cell viability was determined 24 h.p.i. Values were normalized to uninfected RD cells. ***, P<0.001. (B). ^1H NMR spectra of FF-18 peptide in the absence or presence of EV71 virus (green line) or CVB5 virus (red line). (TIF) Click here for additional data file.

Sequence: FRKSKEKIGKFFKRIVQRIFDFLRNLV [FF-18]
- inhibition of EV71 internalization (EV71 virus [1]): strong inhibition
- CC50 (RD cells): over 50 μM
- inhibition of EV71 attachment (EV71 virus [2]): could effectively inhibit EV71 attachment
- protection when cells are pre-incubated with peptide and unbound peptide washed out (EV71 virus [3]): EV71 could still infect these treated cells and cause cell death

Sequence: FRKSKEKIGKLFKRIVQRILDFLRNLV [LL-18]
- inhibition of EV71 internalization (EV71 virus [1]): strong inhibition
- CC50 (RD cells): over 50 μM
- inhibition of EV71 attachment (EV71 virus [2]): could effectively inhibit EV71 attachment
- protection when cells are pre-incubated with peptide and unbound peptide washed out (EV71 virus [3]): EV71 could still infect these treated cells and cause cell death
